The values that follow come from patent US20240336568A1, “SELECTIVE PHD1 INHIBITOR COMPOUNDS, COMPOSITIONS, AND METHODS OF USE” (Akebia Therapeutics, Inc., priority 2021, published 2024).

The test system of the experiment is full-length human prolyl-4-hydroxylase domain (PHD) enzymes, PHD1 and PHD2. Nature of the experiment: TR-FRET assay, selectivity of compounds for PHD1 over PHD2 (ratio of Kis calculated from IC50s). The experiment is classed as biochemical. Particulars: ratio of Kis (PHD2 Ki/PHD1 Ki), Kis calculated from TR-FRET IC50s by Cheng Prussoff equation; 1 uM 2-OG. From the text:
Time-resolved fluorescence resonance energy transfer (TR-FRET) assay was utilized to determine the enzymatic half maximal inhibitory concentration (IC50) value of PHD inhibitors against the full-length human prolyl-4-hydroxylase domain (PHD) enzymes, PHD1 and PHD2. The TR-FRET assay was developed based on the specific binding of hydroxylated HIF-la peptide with the complex formed by VHL, EloB and EloC (VBC), to generate a fluorescent signal. Terbium (Tb)-Donor (monoclonal antibody anti-6His-Tb-cryptate Gold) and D2-acceptor (streptavidin [SA]-D2) of TR-FRET are linked to the VBC complex and to HIF-1α peptide, respectively. The VBC complex binds specifically to the HIF-1α peptide when it is hydroxylated, allowing energy transfer from TR-FRET donor to acceptor (FIG. 1).
TR-FRET Reagents. Monoclonal antibody anti-6His-Tb-cryptate Gold (catalog #61HI2TLA) and streptavidin (SA)-D2 (catalog #610SADLA) were purchased from CisBio International (Bedford, MA, USA).
N-terminus biotinylated HIF-1α C35 synthetic peptide representing amino acids 547 to 581 and including the proline 564 PHD2 hydroxylation site was purchased from California Peptide Research (Salt Lake City, UT, USA).
VBC Complex. His-tagged recombinant VHL protein, EloB, EloC complex (His-VBC) was supplied by Axxam (Milan, Italy). Recombinant human VHL (National Center for Biotechnology Information [NCBI] accession number NP_00542.1) contained a His tag at the C-terminus of amino acids 55 to 213 and is referred to as VHL-His. VHL-His was co-expressed in E. coli with full-length human EloB (NCBI accession number Q15370.1) and full-length human EloC (NCBI accession number Q15369.1) and purified by affinity chromatography on a nickel-nitrilotriacetic acid (Ni-NTA) column as the His-VBC complex. Purity (˜80%) was assessed by sodium dodecyl sulfate polyacrylamide gel electrophoresis (SDS-PAGE).
PHD1. Recombinant human PHD1 protein (catalog #81064, Lot #24717001) was purchased from Active Motif (Carlsbad, CA, USA). PHD1 was expressed in a baculovirus expression system as the full-length protein (NCBI accession number NP_542770.2) with an N-terminal FLAG tag (molecular weight 44.9 kDa). Purity (>90%) was assessed by SDS-PAGE.
PHD2. The full-length human PHD2 enzyme was produced with a baculovirus infected insect cell (BIIC) expression system by Beryllium (Bedford, MA, USA). The PHD2 construct contained amino acids 1 to 426 of PHD2 (UniProt Knowledgebase[UniProtKB]/Swiss-Prot accession number Q9GZT9.1), and a His tag and a Tobacco Etch Virus (TEV) protease cleavage site at the N-terminus. The construct was expressed in Sf9 insect cells, purified by Ni-NTA column and digested with TEV protease to remove the His tag.
Compounds were preincubated with PHD enzyme in a 10 μL reaction volume in white 384-well Optiplate microplates (catalog #6007290, Perkin Elmer, Waltham, MA, USA). For this, 5 μL compound was serially diluted with dilution buffer (50 mM HEPES [4-(2-hydroxyethyl)-1-piperazineethanesulfonic acid] pH 7.5, 50 mM sodium chloride [NaCl], 0.01% Tween-20, 0.01% purified bovine serum albumin [BSA]) and mixed with 5 μL PHD enzyme mix prepared as a 4× concentrate in the dilution buffer containing PHD enzyme (60 nM PHD1, 20 nM PHD2, 140 nM PHD3), 40 μM ferrous ammonium sulfate (FAS), 4 mM sodium (Na) ascorbate. The plates were incubated for 30 minutes at room temperature without rotation.
Five microliters of the VBC/anti-6His-Tb-cryptate Gold mix prepared as a 4× concentrate in dilution buffer containing 20 nM His-VBC, 1.32 nM monoclonal antibody anti-6His-Tb-cryptate Gold was then added. This step was followed immediately by the addition of 5 μL of the HIF-1α C35 substrate mix prepared as a 4× concentrate in the dilution buffer containing 120 nM biotin-labeled HIF-1α C35, 132 nM SA-D2, 4 μM 2-oxoglutarate (2-OG) to reach a final reaction volume of 20 μL. […]
For the molecule `CC(C)(CNC(=O)c1ncc(-c2cccc(NCc3ccc(Cl)cc3)c2)cc1O)C(=O)O` [compound 30, 3-(5-(3-((4-Chlorobenzyl)amino)phenyl)-3-hydroxypicolinamido)-2,2-dimethylpropanoic acid], the “Selectivity of PHD1 over PHD2” value is roughly 223 fold.
The result for `CC(C)(CNC(=O)c1ncc(-c2ccc(S(=O)(=O)N3CCCC3)cc2CO)cc1O)C(=O)O` [compound 36, 3-(3-hydroxy-5-(2-(hydroxymethyl)-4-(pyrrolidin-1-ylsulfonyl)phenyl)picolinamido)-2,2-dimethylpropanoic acid] reads roughly 113 fold; that for `CC(C)(CNC(=O)c1ncc(-c2cccc(Oc3ccccc3)c2)cc1O)C(=O)O` [compound 8, 3-(3-hydroxy-5-(3-phenoxyphenyl)picolinamido)-2,2-dimethylpropanoic acid], roughly 219 fold.
The same measure for `CC(C)(CNC(=O)c1ncc(-c2cccc(COc3ccc(OC(F)(F)F)cc3)c2)cc1O)C(=O)O` [compound 16, 3-(3-hydroxy-5-(3-((4-(trifluoromethoxy)phenoxy)methyl)phenyl)picolinamido)-2,2-dimethylpropanoic acid]: roughly 53 fold.
The result for `CC(C)(CNC(=O)c1ncc(-c2ccc3c(=O)[nH]ncc3c2)cc1O)C(=O)O` [compound 57, 3-(3-hydroxy-5-(1-oxo-1,2-dihydrophthalazin-6-yl)picolinamido)-2,2-dimethylpropanoic acid] reads roughly 64 fold.
With `CC(C)(CNC(=O)c1ncc(-c2cccc(COc3cccc4ccccc34)c2)cc1O)C(=O)O` [compound 18, 3-(3-hydroxy-5-(3-((naphthalen-1-yloxy)methyl)phenyl)picolinamido)-2,2-dimethylpropanoic acid], the “Selectivity of PHD1 over PHD2” value is on record as roughly 885 fold.
The same measure for `CC(C)(CNC(=O)c1ncc(-c2cccc(OCc3ccc(Cl)cc3)c2)cc1O)C(=O)O` [compound 22, 3-(5-(3-((4-chlorobenzyl)oxy)phenyl)-3-hydroxypicolinamido)-2,2-dimethylpropanoic acid]: roughly 261 fold; for `CC(C)(CNC(=O)c1ncc(-c2cccc3ccccc23)cc1O)C(=O)O` [compound 20, 3-(3-hydroxy-5-(naphthalen-1-yl)picolinamido)-2,2-dimethylpropanoic acid]: roughly 159 fold.
The same measure for `CC(C)(CNC(=O)c1ncc(-c2ccc3cnccc3c2)cc1O)C(=O)O` [compound 42, 3-(3-hydroxy-5-(isoquinolin-6-yl)picolinamido)-2,2-dimethylpropanoic acid]: roughly 197 fold.
The result for `CC(C)(CNC(=O)c1ncc(-c2cccc(NCCc3ccc(Cl)cc3)c2)cc1O)C(=O)O` [compound 52, 3-(5-(3-((4-Chlorophenethyl)amino)phenyl)-3-hydroxypicolinamido)-2,2-dimethylpropanoic acid] reads roughly 31 fold; that for `COCCc1ccc(OCc2cccc(-c3cnc(C(=O)NCC(C)(C)C(=O)O)c(O)c3)c2)cc1` [compound 13, 3-(3-hydroxy-5-(3-((4-(2-methoxyethyl)phenoxy)methyl)phenyl)picolinamido)-2,2-dimethylpropanoic acid], roughly 6 fold; that for `Cc1c(-c2cnc(C(=O)NCC(C)(C)C(=O)O)c(O)c2)ccc2ccccc12` [compound 60, 3-(3-hydroxy-5-(1-methylnaphthalen-2-yl)picolinamido)-2,2-dimethylpropanoic acid], roughly 204 fold.
For `Cc1ccc2ccc(-c3cnc(C(=O)NCC(C)(C)C(=O)O)c(O)c3)c(F)c2n1` [compound 44, 3-(5-(8-fluoro-2-methylquinolin-7-yl)-3-hydroxypicolinamido)-2,2-dimethylpropanoic acid], the “Selectivity of PHD1 over PHD2” value was roughly 1833 fold.
For `CC(C)(CNC(=O)c1ncc(-c2ccc3nccnc3c2)cc1O)C(=O)O` [compound 46, 3-(3-hydroxy-5-(quinoxalin-6-yl)picolinamido)-2,2-dimethylpropanoic acid], the “Selectivity of PHD1 over PHD2” value was roughly 124 fold.
The same measure for `Cc1cccc2cc(-c3cnc(C(=O)NCC(C)(C)C(=O)O)c(O)c3)cnc12` [compound 40, 3-(3-hydroxy-5-(8-methylquinolin-3-yl)picolinamido)-2,2-dimethylpropanoic acid]: roughly 20 fold; for `CC(C)(CNC(=O)c1ncc(-c2cccc(COc3cccc(Cl)c3)c2)cc1O)C(=O)O` [compound 11, 3-(5-(3-((3-chlorophenoxy)methyl)phenyl)-3-hydroxypicolinamido)-2,2-dimethylpropanoic acid]: roughly 50 fold; for `CC(C)c1ccc2sc(-c3cnc(C(=O)NCC(C)(C)C(=O)O)c(O)c3)cc2c1` [compound 61, 3-(3-hydroxy-5-(5-isopropylbenzo[b]thiophen-2-yl)picolinamido)-2,2-dimethylpropanoic acid]: roughly 341 fold.
The same measure for `CC(C)(CNC(=O)c1ncc(-c2cccc(O)c2)cc1O)C(=O)O` [compound 21, 3-(3-hydroxy-5-(3-hydroxyphenyl)picolinamido)-2,2-dimethylpropanoic acid]: roughly 1494 fold.
The result for `CCCn1cc(-c2cnc(C(=O)NCC(C)(C)C(=O)O)c(O)c2)cn1` [compound 7, 3-(3-hydroxy-5-(1-propyl-1H-pyrazol-4-yl)picolinamido)-2,2-dimethylpropanoic acid] reads roughly 503 fold.
For the molecule `CC(C)(CNC(=O)c1ncc(-c2cccc(-c3ccccc3)c2)cc1O)C(=O)O` [compound 9, 3-(5-([1,1′-biphenyl]-3-yl)-3-hydroxypicolinamido)-2,2-dimethylpropanoic acid], the “Selectivity of PHD1 over PHD2” value is on record as roughly 189 fold.
The same measure for `CC(C)(CNC(=O)c1ncc(-c2cccc(Cl)c2)cc1O)C(=O)O` [compound 4, 3-(5-(3-chlorophenyl)-3-hydroxypicolinamido)-2,2-dimethylpropanoic acid]: roughly 1187 fold; for `Cc1ccc2cc(-c3cnc(C(=O)NCC(C)(C)C(=O)O)c(O)c3)ccc2n1` [compound 45, 3-(3-hydroxy-5-(2-methylquinolin-6-yl)picolinamido)-2,2-dimethylpropanoic acid]: roughly 3740 fold; for `CC(C)(C)OC(=O)N1CCC(n2cc(-c3cnc(C(=O)NCC(C)(C)C(=O)O)c(O)c3)cn2)CC1` [compound 32, 3-(5-(1-(1-(tert-butoxycarbonyl)piperidin-4-yl)-1H-pyrazol-4-yl)-3-hydroxypicolinamido)-2,2-dimethylpropanoic acid]: roughly 444 fold.
The result for `CC(C)(CNC(=O)c1ncc(-c2cccc(Nc3ccc(Cl)cc3)c2)cc1O)C(=O)O` [compound 25, 3-(5-(3-((4-chlorophenyl)amino)phenyl)-3-hydroxypicolinamido)-2,2-dimethylpropanoic acid] reads roughly 213 fold; that for `CC(C)(CNC(=O)c1ncc(-c2cnn(CCN3CCOCC3)c2)cc1O)C(=O)O` [compound 19, 3-(3-hydroxy-5-(1-(2-morpholinoethyl)-1H-pyrazol-4-yl)picolinamido)-2,2-dimethylpropanoic acid], roughly 495 fold.
